Data: patent US8877748B2, “Heterocyclic fused anthraquinone derivatives, manufacturing method and pharmaceutical composition using thereof” (National Defense Medical Center, priority 2012, dated 2014)

Assays:
[1] = system: PC-3 prostate cancer cell line; assay: SRB assay cell viability, PC-3 prostate cancer cell line; format: cell-based, human; conditions: PC-3 prostate cancer cell line, Table II prints no unit, μM printed, read-out: SRB assay: 50% inhibition of cancer cell proliferation of sample concentration (IC50) of PC-3 prostate cancer cell line
HL-60, TB = assay: NCI one-dose screening, leukemia HL-60, TB; format: cell-based, human; conditions: 10 μM
MOLT-4 = assay: NCI one-dose screening, leukemia MOLT-4; format: cell-based, human; conditions: 10 μM
SR = assay: NCI one-dose screening, leukemia SR; format: cell-based, human; conditions: 10 μM
PRMI-8226 cell line = assay: NCI one-dose screening, leukemia PRMI-8226; format: cell-based, human; conditions: 10 μM
K562cell line = assay: NCI one-dose screening, leukemia K562; format: cell-based, human; conditions: 10 μM
EKVX = assay: NCI one-dose screening, non-small cell lung cancer EKVX; format: cell-based, human; conditions: 10 μM
HOP-62 = assay: NCI one-dose screening, non-small cell lung cancer HOP-62; format: cell-based, human; conditions: 10 μM
HOP-92 = assay: NCI one-dose screening, non-small cell lung cancer HOP-92; format: cell-based, human; conditions: 10 μM
NCI-H226 = assay: NCI one-dose screening, non-small cell lung cancer NCI-H226; format: cell-based, human; conditions: 10 μM
NCI-H23 = assay: NCI one-dose screening, non-small cell lung cancer NCI-H23; format: cell-based, human; conditions: 10 μM
NCI-H460 = assay: NCI one-dose screening, non-small cell lung cancer NCI-H460; format: cell-based, human; conditions: 10 μM
NCI-H522 = assay: NCI one-dose screening, non-small cell lung cancer NCI-H522; format: cell-based, human; conditions: 10 μM
A549/ATCC = assay: NCI one-dose screening, non-small cell lung cancer A549/ATCC; format: cell-based, human; conditions: 10 μM
COLO 205 = assay: NCI one-dose screening, colon cancer COLO 205; format: cell-based, human; conditions: 10 μM
HCC-2998 = assay: NCI one-dose screening, colon cancer HCC-2998; format: cell-based, human; conditions: 10 μM
HCT-116 = assay: NCI one-dose screening, colon cancer HCT-116; format: cell-based, human; conditions: 10 μM
HCT-15 = assay: NCI one-dose screening, colon cancer HCT-15; format: cell-based, human; conditions: 10 μM
KM12 = assay: NCI one-dose screening, colon cancer KM12; format: cell-based, human; conditions: 10 μM
HT29 = assay: NCI one-dose screening, colon cancer HT29; format: cell-based, human; conditions: 10 μM
SF-268 = assay: NCI one-dose screening, CNS cancer SF-268; format: cell-based, human; conditions: 10 μM
SF-295 = assay: NCI one-dose screening, CNS cancer SF-295; format: cell-based, human; conditions: 10 μM
SF-539 = assay: NCI one-dose screening, CNS cancer SF-539; format: cell-based, human; conditions: 10 μM
SNB-19 = assay: NCI one-dose screening, CNS cancer SNB-19; format: cell-based, human; conditions: 10 μM
SNB-75 = assay: NCI one-dose screening, CNS cancer SNB-75; format: cell-based, human; conditions: 10 μM
U251 = assay: NCI one-dose screening, CNS cancer U251; format: cell-based, human; conditions: 10 μM
LOX IMVI = assay: NCI one-dose screening, melanoma LOX IMVI; format: cell-based, human; conditions: 10 μM
MALME-3M = assay: NCI one-dose screening, melanoma MALME-3M; format: cell-based, human; conditions: 10 μM
M14 = assay: NCI one-dose screening, melanoma M14; format: cell-based, human; conditions: 10 μM
UACC-62 = assay: NCI one-dose screening, melanoma UACC-62; format: cell-based, human; conditions: 10 μM
UACC-257 = assay: NCI one-dose screening, melanoma UACC-257; format: cell-based, human; conditions: 10 μM
SK-MEL-2 = assay: NCI one-dose screening, melanoma SK-MEL-2; format: cell-based, human; conditions: 10 μM
SK-MEL-28 = assay: NCI one-dose screening, melanoma SK-MEL-28; format: cell-based, human; conditions: 10 μM
SK-MEL-5 = assay: NCI one-dose screening, melanoma SK-MEL-5; format: cell-based, human; conditions: 10 μM
IGROV1 = assay: NCI one-dose screening, ovarian cancer IGROV1; format: cell-based, human; conditions: 10 μM
OVCAR-3 = assay: NCI one-dose screening, ovarian cancer OVCAR-3; format: cell-based, human; conditions: 10 μM
OVCAR-5 = assay: NCI one-dose screening, ovarian cancer OVCAR-5; format: cell-based, human; conditions: 10 μM
OVCAR-8 = assay: NCI one-dose screening, ovarian cancer OVCAR-8; format: cell-based, human; conditions: 10 μM
SK-OV-3 = assay: NCI one-dose screening, ovarian cancer SK-OV-3; format: cell-based, human; conditions: 10 μM
786-O = assay: NCI one-dose screening, renal cancer 786-O; format: cell-based, human; conditions: 10 μM
CAKI-1 = assay: NCI one-dose screening, renal cancer CAKI-1; format: cell-based, human; conditions: 10 μM
[2] = NCI one-dose screening, renal cancer A489; format: cell-based, human; conditions: 10 μM
ACHN = assay: NCI one-dose screening, renal cancer ACHN; format: cell-based, human; conditions: 10 μM
SN12C = assay: NCI one-dose screening, renal cancer SN12C; format: cell-based, human; conditions: 10 μM
TK-10 = assay: NCI one-dose screening, renal cancer TK-10; format: cell-based, human; conditions: 10 μM
UO-31 = assay: NCI one-dose screening, renal cancer UO-31; format: cell-based, human; conditions: 10 μM
RXF, 393 = assay: NCI one-dose screening, renal cancer RXF, 393; format: cell-based, human; conditions: 10 μM
DU145 = assay: NCI one-dose screening, prostate cancer DU145; format: cell-based, human; conditions: 10 μM
PC-3 = assay: NCI one-dose screening, prostate cancer PC-3; format: cell-based, human; conditions: 10 μM
MCF7 = assay: NCI one-dose screening, breast cancer MCF7; format: cell-based, human; conditions: 10 μM
HS 578-T = assay: NCI one-dose screening, breast cancer HS 578-T; format: cell-based, human; conditions: 10 μM; Breast cancer
MDA-MB-231/ATCC = assay: NCI one-dose screening, breast cancer MDA-MB-231/ATCC; format: cell-based, human; conditions: 10 μM
MDA-MB-468 = assay: NCI one-dose screening, breast cancer MDA-MB-468; format: cell-based, human; conditions: 10 μM
NCl/ADR-RES = assay: NCI one-dose screening, breast cancer NCl/ADR-RES; format: cell-based, human; conditions: 10 μM; listed under Ovarian cancer
BT-549 = assay: NCI one-dose screening, breast cancer BT-549; format: cell-based, human; conditions: 10 μM
T-47D = assay: NCI one-dose screening, breast cancer T-47D; format: cell-based, human; conditions: 10 μM
MDA, -MB-435 = assay: NCI one-dose screening, breast cancer MDA, -MB-435; format: cell-based, human; conditions: 10 μM; listed under Melanoma
human tumor cell lines = assay: NCI one-dose screening, Mean / Delta / Range of growth percent over all tested cell lines; format: cell-based; conditions: 10 μM

4-(2,5-dichloro-phenyl thio)anthra[2,1-c] [1,2,5]thiadiazol oxazole-6,11-dione [C35]
IC50 [1]: > 15 µM
Growth Percent HL-60(TB) (HL-60, TB): 72.72%
Growth Percent MOLT-4 (MOLT-4): 1.27%
Growth Percent SR (SR): 41.15%
Growth Percent RPMI-8226 (PRMI-8226 cell line): 77.16%
Growth Percent K562 (K562cell line): 47.80%
Growth Percent EKVX (EKVX): 109.03%
Growth Percent HOP-62 (HOP-62): 63.18%
Growth Percent HOP-92 (HOP-92): 65.12%
Growth Percent NCI-H226 (NCI-H226): 112.00%
Growth Percent NCI-H23 (NCI-H23): 74.59%
Growth Percent NCI-H460 (NCI-H460): 100.98%
Growth Percent NCI-H522 (NCI-H522): 91.29%
Growth Percent A549/ATCC (A549/ATCC): 102.75%
Growth Percent COLO 205 (COLO 205): 109.65%
Growth Percent HCC-2998 (HCC-2998): 109.37%
Growth Percent HCT-116 (HCT-116): 81.94%
Growth Percent HCT-15 (HCT-15): 92.85%
Growth Percent KM12 (KM12): 101.18%
Growth Percent HT29 (HT29): 106.27%
Growth Percent SF-268 (SF-268): 82.95%
Growth Percent SF-295 (SF-295): 78.93%
Growth Percent SF-539 (SF-539): 88.74%
Growth Percent SNB-19 (SNB-19): 84.39%
Growth Percent SNB-75 (SNB-75): 47.00%
Growth Percent U251 (U251): 63.57%
Growth Percent LOX IMVI (LOX IMVI): 73.05%
Growth Percent MALME-3M (MALME-3M): 94.30%
Growth Percent M14 (M14): 98.95%
Growth Percent UACC-62 (UACC-62): 94.09%
Growth Percent UACC-257 (UACC-257): 119.38%
Growth Percent SK-MEL-2 (SK-MEL-2): 101.38%
Growth Percent SK-MEL-28 (SK-MEL-28): 122.69%
Growth Percent SK-MEL-5 (SK-MEL-5): 108.82%
Growth Percent IGROV1 (IGROV1): 78.13%
Growth Percent OVCAR-3 (OVCAR-3): 99.41%
Growth Percent OVCAR-5 (OVCAR-5): 108.82%
Growth Percent OVCAR-8 (OVCAR-8): 85.13%
Growth Percent SK-OV-3 (SK-OV-3): 84.09%
Growth Percent 786-0 (786-O): 67.49%
Growth Percent CAKI-1 (CAKI-1): 108.19%
Growth Percent A498 [2]: 87.70%
Growth Percent ACHN (ACHN): 88.50%
Growth Percent SN12C (SN12C): 96.65%
Growth Percent TK-10 (TK-10): 111.76%
Growth Percent UO-31 (UO-31): 91.54%
Growth Percent RXF 393 (RXF, 393): 91.47%
Growth Percent DU145 (DU145): 102.44%
Growth Percent PC-3 (PC-3): 80.59%
Growth Percent MCF7 (MCF7): 85.16%
Growth Percent HS 578T (HS 578-T): 72.51%
Growth Percent MDA-MB-231/ATCC (MDA-MB-231/ATCC): 82.44%
Growth Percent MDA-MB-468 (MDA-MB-468): 90.73%
Growth Percent NCI/ADR-RES (NCl/ADR-RES): 83.13%
Growth Percent BT-549 (BT-549): 79.66%
Growth Percent T-47D (T-47D): 63.44%
Growth Percent MDA-MB-435 (MDA, -MB-435): 105.64%
Growth Percent Delta (human tumor cell lines; delta over all cell lines): 85.86%
Growth Percent Mean (human tumor cell lines; mean over all cell lines): 87.13%
Growth Percent Range (human tumor cell lines; range over all cell lines): 121.42%
